Measured values: patent US20090012103A1, “SUBSTITUTED HETEROCYCLIC COMPOUNDS” (priority 2007, published 2009)

How the values were obtained:
hERG potassium channel = hERG potassium channel (Homo sapiens, UniProt Q12809); experiment: hERG screening assay (PatchXpress patch clamp, CHO cell line)
[1] = biological target: T1, wild-type human cardiac sodium channel, hNav1.5 (Homo sapiens, UniProt Q14524); experiment: Late INa screening assay (late sodium current, PatchXpress whole cell patch clamp); assay type: cell-based; details: compound at 10 μM; read-out: Late INa % blk
T1 sequence (Q14524 whole entry): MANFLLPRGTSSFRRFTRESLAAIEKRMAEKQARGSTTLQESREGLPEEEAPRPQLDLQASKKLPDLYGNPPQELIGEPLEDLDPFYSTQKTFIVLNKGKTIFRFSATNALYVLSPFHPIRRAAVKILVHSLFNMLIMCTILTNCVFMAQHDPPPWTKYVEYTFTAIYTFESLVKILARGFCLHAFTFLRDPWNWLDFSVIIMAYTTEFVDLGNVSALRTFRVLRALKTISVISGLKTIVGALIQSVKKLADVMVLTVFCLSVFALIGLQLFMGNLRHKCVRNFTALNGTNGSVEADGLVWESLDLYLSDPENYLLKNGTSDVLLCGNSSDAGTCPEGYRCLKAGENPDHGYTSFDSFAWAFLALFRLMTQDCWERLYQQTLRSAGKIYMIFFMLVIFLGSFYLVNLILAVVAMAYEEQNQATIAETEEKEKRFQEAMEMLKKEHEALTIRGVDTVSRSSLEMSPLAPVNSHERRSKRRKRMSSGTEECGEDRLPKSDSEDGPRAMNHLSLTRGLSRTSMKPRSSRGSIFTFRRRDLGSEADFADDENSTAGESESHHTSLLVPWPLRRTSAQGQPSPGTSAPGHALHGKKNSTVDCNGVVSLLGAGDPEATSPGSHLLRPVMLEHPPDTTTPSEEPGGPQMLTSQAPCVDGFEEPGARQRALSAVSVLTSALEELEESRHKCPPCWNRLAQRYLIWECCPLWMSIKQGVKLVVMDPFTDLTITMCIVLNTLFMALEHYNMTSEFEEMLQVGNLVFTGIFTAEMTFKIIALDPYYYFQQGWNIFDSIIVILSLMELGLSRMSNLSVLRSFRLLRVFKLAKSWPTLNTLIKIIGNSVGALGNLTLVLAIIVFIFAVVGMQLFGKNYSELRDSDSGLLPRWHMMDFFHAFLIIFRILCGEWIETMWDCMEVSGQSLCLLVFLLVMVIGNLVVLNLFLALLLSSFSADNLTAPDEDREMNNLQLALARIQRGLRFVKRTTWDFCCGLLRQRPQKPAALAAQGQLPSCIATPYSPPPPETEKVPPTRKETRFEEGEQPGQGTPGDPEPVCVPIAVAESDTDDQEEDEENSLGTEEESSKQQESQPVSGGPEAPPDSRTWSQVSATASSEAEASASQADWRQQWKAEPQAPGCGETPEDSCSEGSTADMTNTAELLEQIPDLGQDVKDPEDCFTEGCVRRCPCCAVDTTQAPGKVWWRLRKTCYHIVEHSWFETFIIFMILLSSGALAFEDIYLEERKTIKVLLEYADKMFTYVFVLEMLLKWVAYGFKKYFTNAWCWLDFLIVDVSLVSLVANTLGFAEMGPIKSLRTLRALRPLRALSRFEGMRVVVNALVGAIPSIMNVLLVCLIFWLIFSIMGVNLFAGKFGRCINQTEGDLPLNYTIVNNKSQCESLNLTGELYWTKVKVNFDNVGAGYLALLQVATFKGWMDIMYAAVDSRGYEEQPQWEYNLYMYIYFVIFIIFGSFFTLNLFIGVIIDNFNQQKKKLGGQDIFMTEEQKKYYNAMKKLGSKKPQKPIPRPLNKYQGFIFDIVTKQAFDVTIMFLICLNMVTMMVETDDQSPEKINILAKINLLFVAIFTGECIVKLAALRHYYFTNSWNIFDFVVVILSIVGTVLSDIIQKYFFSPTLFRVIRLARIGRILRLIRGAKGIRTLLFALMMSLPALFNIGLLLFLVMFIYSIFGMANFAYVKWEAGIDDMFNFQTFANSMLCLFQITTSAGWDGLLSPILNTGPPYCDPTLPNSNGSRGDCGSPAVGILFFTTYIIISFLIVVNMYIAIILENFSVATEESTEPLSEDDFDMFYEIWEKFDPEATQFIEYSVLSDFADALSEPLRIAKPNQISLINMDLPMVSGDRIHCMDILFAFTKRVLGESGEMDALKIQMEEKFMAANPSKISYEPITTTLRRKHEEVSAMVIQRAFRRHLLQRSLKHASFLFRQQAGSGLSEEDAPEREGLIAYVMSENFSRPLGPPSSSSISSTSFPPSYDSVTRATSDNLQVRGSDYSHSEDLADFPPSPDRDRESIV

[2] = biological target: T1, wild-type human cardiac sodium channel, hNav1.5; experiment: Peak INa screening assay (tonic block TB and use-dependent block UDB of peak sodium current); assay type: cell-based; details: compound at 10 μM
Procedure: The late sodium current (Late INa) and peak sodium current (Peak INa) assays are performed on an automated electrophysiology platform, PatchXpress 7000A (MDS Analytical Technologies, Sunnyvale, Calif.), which uses the whole cell patch clamp technique to measure currents through the cell membrane of up to 16 cells at a time. The assay uses an HEK293 (human embryonic kidney) cell line heterologously expressing the wild-type human cardiac sodium channel, hNav1.5, purchased from Millipore (Billerica, Mass.). No beta subunits were coexpressed with the Na channel alpha subunit. […] Experiments are carried out at 24-27° C.
For both the Late INa and Peak INa assays, series resistance compensation is set to 50% and whole-cell compensation is performed automatically. […] Currents through open sodium channels are automatically recorded and stored in the DataXpress2 database (MDS Analytical Technologies, Sunnyvale, Calif.). Analysis is performed using DataXpress2 analysis software and data are compiled in Excel.
Compound stocks are routinely made in glass vials to 10 mM in dimethyl sulfoxide (DMSO). In some cases, when compounds are not soluble in DMSO, they are made in 100% ethanol. Stocks are sonicated as necessary. The extracellular solution for screening Late INa is composed of: 140 mM NaCl, 4 mM KCl, 1.8 mM CaCl2, 0.75 mM MgCl2, and 5 mM HEPES with pH adjusted to 7.4 using NaOH. The extracellular solution for screening Peak INa is composed of: 20 mM NaCl, 120 mM N-methyl-D glucamine, 4 mM KCl, 1.8 mM CaCl2, 0.75 mM MgCl2, and 5 mM HEPES with pH adjusted to 7.4 using HCl. The intracellular solution used to perfuse the inside of the cells for both the Late INa and Peak INa assays contains: 120 mM CsF, 20 mM CsCl, 5 mM EGTA, 5 mM HEPES and pH adjusted to 7.4 with CsOH. Compounds are diluted in extracellular solution to 10 μM in glass vials and then transferred to glass well plates before robotic addition to the cells. The 0 Na extracellular solution used at the end of each experiment for the Late INa and Peak INa assays to measure baseline current contains: 140 mM N-methyl-D-glucamine; 4 mM KCl; 1.8 mM CaCl2; 0.75 mM MgCl2; 5 mM HEPES and pH was adjusted to 7.4 with HCl.
Compounds were also evaluated for their effect in several other assays, including their effect on Peak INa. In some cases, the effect on Peak INa was measured using data from the Late INa assay. […] Since the peak INa can be very large, introducing artifacts in the recording, the concentration of Na^+ in the bath is reduced to 20 mM and a nonpermeant cation is added to compensate for the Na^+ that was omitted from the standard extracellular solution (see above). The peak INa assay uses a holding potential of −100 mV and a 20 ms test pulse to 0 mV to activate the channel. As in the Late INa assay, stepping the voltage to 0 mV causes a rapid increase in negative Na current through hNav1.5 that inactivates within a few ms. No late INa activator is added for the peak assay.
For the separate peak INa assay, both tonic (TB) block and use-dependent (UDB) block of peak inward sodium current by 10 μM compound are determined. TB is block of the channel in the resting state, before the channel opens. TB is simulated in this assay by stimulating the channel to open at a low frequency (0.1 Hz). This is done in order to measure the control current amplitude and monitor current rundown, enabling correction for rundown in the calculation of percent block for TB.

[3] = tonic block, read-out: Tonic Peak INa % blk
[4] = use-dependent block, read-out: UDB Peak INa % blk

Sequence of hERG potassium channel (Q12809 whole entry): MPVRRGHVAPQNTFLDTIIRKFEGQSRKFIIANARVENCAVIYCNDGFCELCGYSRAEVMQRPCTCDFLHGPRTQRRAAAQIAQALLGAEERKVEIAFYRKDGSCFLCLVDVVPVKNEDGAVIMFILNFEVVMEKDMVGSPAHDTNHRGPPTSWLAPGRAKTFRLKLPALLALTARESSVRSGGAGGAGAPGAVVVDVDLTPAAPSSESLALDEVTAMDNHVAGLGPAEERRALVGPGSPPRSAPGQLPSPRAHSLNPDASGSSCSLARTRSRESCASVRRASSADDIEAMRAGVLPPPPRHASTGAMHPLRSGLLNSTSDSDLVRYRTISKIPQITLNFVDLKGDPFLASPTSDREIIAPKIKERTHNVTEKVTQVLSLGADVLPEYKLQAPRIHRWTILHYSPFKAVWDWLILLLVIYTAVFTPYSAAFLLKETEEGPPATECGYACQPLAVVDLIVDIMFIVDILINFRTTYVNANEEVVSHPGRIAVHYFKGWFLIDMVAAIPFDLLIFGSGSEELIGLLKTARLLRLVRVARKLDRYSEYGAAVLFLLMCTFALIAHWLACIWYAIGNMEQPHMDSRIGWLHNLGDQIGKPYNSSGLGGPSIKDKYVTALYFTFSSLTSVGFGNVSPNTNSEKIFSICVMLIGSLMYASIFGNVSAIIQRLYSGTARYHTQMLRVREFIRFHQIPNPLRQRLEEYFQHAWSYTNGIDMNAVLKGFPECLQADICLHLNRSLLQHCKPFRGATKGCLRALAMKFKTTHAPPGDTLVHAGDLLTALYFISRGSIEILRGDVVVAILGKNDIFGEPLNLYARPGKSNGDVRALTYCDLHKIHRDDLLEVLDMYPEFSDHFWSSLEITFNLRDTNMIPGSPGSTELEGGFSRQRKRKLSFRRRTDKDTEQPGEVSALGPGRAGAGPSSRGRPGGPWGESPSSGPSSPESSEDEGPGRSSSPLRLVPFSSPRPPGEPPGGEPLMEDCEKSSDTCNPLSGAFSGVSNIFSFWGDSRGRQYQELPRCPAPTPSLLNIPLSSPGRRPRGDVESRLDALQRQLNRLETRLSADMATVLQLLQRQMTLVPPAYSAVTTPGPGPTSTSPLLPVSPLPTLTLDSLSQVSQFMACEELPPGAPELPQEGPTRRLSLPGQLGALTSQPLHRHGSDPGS

SMILES	hERG Patch Clamp hERG % blk (hERG potassium channel; 1 μM)	hERG Patch Clamp hERG % blk (hERG potassium channel; 10 μM)	inhibition at 10 µM [1]	inhibition at 10 µM [2, 3]	inhibition at 10 µM [2, 4]
CCOC(=O)C1=C(C)NC2=C(C(=O)CCC2)C1c1ccco1 (stereo not drawn) [PT-153, ethyl 4-(furan-2-yl)-2-methyl-5-oxo-1,4,5,6,7,8-hexahydroquinoline-3-carboxylate]	10.5%	13.5%	-5%	1.7%	–
CCOC(=O)C1=C(C)Nc2nnnn2C1c1cccc(Oc2ccccc2)c1 (stereo not drawn) [PT-464, ethyl 5-methyl-7-(3-phenoxyphenyl)-4,7-dihydrotetrazolo[1,5-a]pyrimidine-6-carboxylate]	11.0%	55.0%	55.8%	2.7%	–
CCOC(=O)C1=C(CC)NC(CC)=C(C(=O)OCC)C1c1ccc(Br)s1 [PT-181, diethyl 4-(5-bromothiophen-2-yl)-2,6-diethyl-1,4-dihydropyridine-3,5-dicarboxylate]	10.5%	73.0%	91.7%	76.5%	–
CC1=C(C(=O)OC(c2ccccc2)C2CC2)C(c2cccc3ccccc23)n2nnnc2N1 (stereo not drawn) [PT-002, cyclopropyl(phenyl)methyl 5-methyl-7-(naphthalen-1-yl)-4,7-dihydrotetrazolo[1,5-a]pyrimidine-6-carboxylate]	11.5%	28.0%	53.1%	2.4%	–
COc1cc(Cl)ccc1COC(=O)C1=C(C)Nc2nnnn2C1c1c(Cl)cccc1Cl (stereo not drawn) [PT-306, 4-chloro-2-methoxybenzyl 7-(2,6-dichlorophenyl)-5-methyl-4,7-dihydrotetrazolo[1,5-a]pyrimidine-6-carboxylate]	10.0%	48.5%	70.4%	20.1%	9%
CC1=C(C(=O)OCc2ccccc2)C(c2nccs2)c2cn[nH]c2N1 (stereo not drawn) [PT-369, benzyl 6-methyl-4-(thiazol-2-yl)-4,7-dihydro-1H-pyrazolo[3,4-b]pyridine-5-carboxylate]	10.0%	25.0%	47.3%	26.3%	13.5%
N#CC1=C(N)OC2=C(C(=O)CCC2)C1c1ccsc1 (stereo not drawn) [PT-100, 2-amino-5-oxo-4-(thiophen-3-yl)-5,6,7,8-tetrahydro-4H-chromene-3-carbonitrile]	10.0%	16.5%	-12.1%	4%	–
CCOC(=O)C1=C(C)Nc2[nH]ncc2C1c1ccc(OC)cc1OCc1ccccc1 (stereo not drawn) [PT-445, ethyl 4-(2-(benzyloxy)-4-methoxyphenyl)-6-methyl-4,7-dihydro-1H-pyrazolo[3,4-b]pyridine-5-carboxylate]	10.5%	50.0%	62.2%	49.6%	31.6%
CCOC(=O)C1=C(C)NC(C)=C(C(=O)OCC)C1c1ccc(CC)s1 [PT-113, diethyl 4-(5-ethylthiophen-2-yl)-2,6-dimethyl-1,4-dihydropyridine-3,5-dicarboxylate]	11.0%	57.3%	88.6%	30.4%	–
CC1=C(C(=O)OCc2ccccc2)C(c2ccc3ccccc3c2)c2c(C)n[nH]c2N1 (stereo not drawn) [PT-325, benzyl 3,6-dimethyl-4-(naphthalen-2-yl)-4,7-dihydro-1H-pyrazolo[3,4-b]pyridine-5-carboxylate]	10.0%	36.0%	53.8%	19.9%	24.3%
CCOC(=O)C1=C(C)Nc2nnnn2C1c1ccc2ccccc2c1 (stereo not drawn) [PT-008, ethyl 5-methyl-7-(naphthalen-2-yl)-4,7-dihydrotetrazolo[1,5-a]pyrimidine-6-carboxylate]	10.0%	33.5%	57.2%	2.1%	–
CC1=C(C(=O)OC2CCc3ccccc32)C(c2cccc3ccccc23)n2nnnc2N1 (stereo not drawn) [PT-062, 2,3-dihydro-1H-inden-1-yl 5-methyl-7-(naphthalen-1-yl)-4,7-dihydrotetrazolo[1,5-a]pyrimidine-6-carboxylate]	14.0%	51.0%	60.2%	7.9%	–
CCOC(=O)C1=C(C)NC(C)=C(C(=O)OCC)C1c1csc2ccccc12 [PT-115, diethyl 4-(benzo[b]thiophen-3-yl)-2,6-dimethyl-1,4-dihydropyridine-3,5-dicarboxylate]	–	50.3%	86%	17.2%	–
CC1=C(C(=O)N2CCC(c3ccc(C(=O)O)cc3)CC2)C(c2cccc3ccccc23)C2=C(CCCC2=O)N1 (stereo not drawn) [PT-173, 4-(1-(2-methyl-4-(naphthalen-1-yl)-5-oxo-1,4,5,6,7,8-hexahydroquinoline-3-carbonyl)piperidin-4-yl)benzoic acid]	12.0%	37.0%	52.6%	0%	–
CCOC(=O)C1=C(C)Nc2nc(C#N)c(C#N)n2C1c1cccc2ccccc12 (stereo not drawn) [PT-194, ethyl 2,3-dicyano-7-methyl-5-(naphthalen-1-yl)-5,8-dihydroimidazo[1,2-a]pyrimidine-6-carboxylate]	25.0%	91.0%	76.1%	19.1%	–
N#CC1=C(N)OC2=C(C(=O)CCC2)C1c1ccc(Br)cc1 (stereo not drawn) [PT-096, 2-amino-4-(4-bromophenyl)-5-oxo-5,6,7,8-tetrahydro-4H-chromene-3-carbonitrile]	15.0%	48.0%	5.5%	-0.4%	–
CC1=C(C(=O)OC(C)C)C(c2cccc3ccccc23)C(C(=O)OC(C)C)=C(C)N1 [PT-123, diisopropyl 2,6-dimethyl-4-(naphthalen-1-yl)-1,4-dihydropyridine-3,5-dicarboxylate]	10.0%	30.5%	86.9%	7%	–
CC1=C(C(=O)OCc2ccccc2)C(c2cccs2)n2nnnc2N1 (stereo not drawn) [PT-040, benzyl 5-methyl-7-(thiophen-2-yl)-4,7-dihydrotetrazolo[1,5-a]pyrimidine-6-carboxylate]	14.5%	24.5%	70.8%	9.9%	–
CC1=C(C(=O)OCc2ccccc2)C(c2ccccc2N2CCN(S(C)(=O)=O)CC2)n2nnnc2N1 (stereo not drawn) [PT-339, benzyl 5-methyl-7-(2-(4-(methylsulfonyl)piperazin-1-yl)phenyl)-4,7-dihydrotetrazolo[1,5-a]pyrimidine-6-carboxylate]	11.5%	43.5%	51.4%	22.2%	9%
CC1=C(C(=O)OCc2ccccc2)C(c2c(-c3ccc(C(=O)O)cc3)sc3ccccc23)n2nnnc2N1 (stereo not drawn) [PT-294, 4-(3-(6-(benzyloxycarbonyl)-5-methyl-4,7-dihydrotetrazolo[1,5-a]pyrimidin-7-yl)benzo[b]thiophen-2-yl)benzoic acid]	12.5%	15.5%	67.2%	24.4%	–
